According to US20040265323A1, “Compositions comprising pathogen elicited epithelial chemoattractant (eicosanoid hepoxilin A3), inhibitors thereof and methods of use thereof” (priority 2003, published 2004):
“Also recorded” adds a separate entry of the source.

Legend:
[1] = system: S. typhimurium-induced PMN transepithelial migration, T84 cells; assay: Inhibition of S. typhimurium-induced PMN transepithelial migration across T84 monolayers; assay type: cell-based, human; details: T84 pre-treated: baicalein 48 hours, caffeic acid 24 hours
Text: It was further examined if hepoxilin A3 acts in a gradient fashion to drive PMN migration from the basolateral to the apical epithelial surface. For these experiments, the physiologically directed (basolateral-to-apical) PMN transepithelial migration assay using cell culture inserts of inverted T84 monolayers has been used (McCormick et al., 1993; Parkos et al., 1992). Human PMN were isolated from normal volunteers, as described elsewhere (Parkos et al., 1992; Henson and Oades, 1975). […] PMN which completely traversed the monolayer were represented as the number of PMN (CE/ml in a total volume of 1 ml). Values were expressed as the mean and SD of an individual experiment done in triplicate repeated at least 3 times.
Hepoxilin A3 is formed via the 12-lipoxygenase (LO) metabolism pathway of arachidonic acid. Therefore, the involvement of the 12-LO pathway in the ability of the enteric pathogen, S. typhimurium, to induce PMN transepithelial migration and elicit PEEC secretion was tested. […] For 12-LO inhibition, HBSS(+)-washed T84 cell monolayers were incubated in the presence baicalein [stock concentration at 1 mM in DMSO] for 48 hours at 37° C. Subsequently, S. typhimurium SL1344 was added to the apical surface of the T84 monolayers and after an incubation of 1 hour at 37° C., the cells were washed free of non-adherent bacteria and then processed for the PMN transmigration assay. […] For 5-LO inhibition, the T84 cells were washed with HBSS(+) and then were incubated for 24 hours in the presence of caffeic acid (stock concentration at 22 mM in DMSO). Both inhibitors were purchased form Biomol, Plymouth Meeting, Pa.
In each instance, the T84 cell monolayers were incubated for […] in the presence of the inhibitor prior to the addition of S. typhimurium.

IL-8 secretion = IL-8 secretion by S. typhimurium infected T84 cell monolayers; assay type: cell-based, human; details: S. typhimurium infected T84, baicalein 1 μM
[2] = system: S. typhimurium-infected human intestinal xenografts; assay: Histopathology of human intestinal xenografts infected with S. typhimurium; assay type: in vivo; details: 1 μM in 100 μl intralumenally 2 hours prior to infection; xenografts in SCID mice; 15 hours after infection
Method: Further, the effect of baicalein on S. typhimurium pathology in human intestinal xenografts was determined (Savidge et al., 1995) (FIG. 7). The human fetal intestinal xenograft model used in the present study has been previously described in detail (Savidge et al., 1995). Briefly, human fetal small intestine (n=3, gestational age 10-14weeks) was transplanted subcutaneously into C.B-17 severe-combined immunodeficient (SCID) mice. Xenografts were allowed to develop for a period between 10-20 weeks before use at which time the epithelium and underlying mucosa is fully differentiated (Savidge et al., 1995). Xenografts were infected with approximately 5×10^7 wild type S. typhimurium SL1344 in sterile HBSS(+) buffer in a 100 μl volume injected intralumenally by subcutaneous injection. Xenografts receiving the drug treatment were injected with 1 μM baicalein in a 100 μl volume 2 hours prior to infection with S. typhimurium (in the continued presence of 1 μM baicalein). Xenograft tissue was removed 15 hours after infection, extensively washed, and snap frozen in OCT compound.
A severe vascular disturbance was also noted. These outcomes are all consistent with the clinical manifestations observed from S. typhimurium infection in humans.

[3] = system: intestinal inflammation (rectal prolapse); assay: Intestinal inflammation in SCID mice induced by CD45RBHI T cell transfer; assay type: in vivo
Method: The therapeutic benefits of baicalein on subsiding intestinal inflammation, which was induced in SCID mice by i.v. injection of CD4+ CD45RB HI T cells, was examined. For these experiments, spleens were collected from 6-12 week old donor mice (BALB/c) and splenocytes were isolated by mechanical homogenization of whole spleens. The CD4+ T cells were selected by positive selection. In brief, a cell suspension of pooled splenocytes from 4-5 donor mice was incubated with anti-CD4 (L3T4) antibody coated magnetic beads (DYNABEADS: Catalog # 114.05, Dynal, Lake Success, N.Y.) for 20-30 minutes at 4° C. and separated by magnetic cell sorting with a Dynal Magnetic Particle Concentrator (MPC). Cells were removed from the cell-bead complex with Dynal DETACHaBEAD, and isolated from beads using a Dynal MPC. The resulting CD4+ enriched population was >90% pure. The cell suspension was then incubated with Fc block (anti-CD32, PharMingen, 01241A) and labeled with anti-CD4-FITC (PharMingen, 9004D) and anti-CD45RB-PE (PharMingen, 01145A), for 30 minutes at 4° C. washed, and sorted using a FACSTAR (Becton Dickinson, San Jose, Calif.) cell sorter. Double positive cells (CD4+/CD45Rb+) were collected, selecting the cells that expressed high levels of CD45Rb (brightest 45%). The collected cell population was >90% pure and viable. Cells were then washed in cold […] buffered saline (PBS Sigma D8662) and resuspended in PBS. Balb/c SCID mice, aged 6-12 weeks, were injected intravenously with CD45RBHI Tcells in the tail vein.
Ten weeks post CD45RBHI T cell transfer, roughly 30% of SCID mice developed intestinal inflammation, characterized by mucin depletion, goblet cell loss, epithelial hyperplasia and finally rectal prolapse (FIG. 8). These mice were divided equally among treatment groups The first treatment group received buffer control alone (sterile Hanks Balanced Salts Solution (“HBSS”)) and the second and the third treatment groups received low (2 μM) and high (200 μM) doses of baicalein i.v., respectively, every other day along with a vehicle control. […]

MRP-2 = MRP-2 expression in large bowel of CD45Rbhi T cell transferred mice; assay type: in vivo; details: sick mice after treatment, FIG. 11C
Method: The upper third of the large bowel from these mice were excised, and fixed in OCT. Slides from these tissues were prepared and fluorescently probed for MRP-2 expression. […] Thus, in the efflux pathway for hepoxilin A3, MRP-2 is in fact activated during the disease phase and suppressed upon baicalein treatment

O=c1cc(-c2ccccc2)oc2cc(O)c(O)c(O)c12 [baicalein]
S. typhimurium-induced PMN transepithelial migration with lipoxygenase inhibitor [1]: attenuated S. typhimurium-induced PMN transepithelial migration in a concentration-dependent fashion; also recorded: dose dependent decrease
IL-8 secretion (IL-8 secretion): 577 ± 35 pg/mL
histopathology / severity of intestinal inflammation [2]: only minimal alterations detectable; also recorded: significantly reduced; also recorded: significantly less severe
rectal prolapse ([3]; high dose 200 μM i.v. every other day, 2.5 weeks): complete recovery of rectal prolapse
health status and rectal prolapse ([3]; low dose 2 μM i.v. every other day, 2.5 weeks): no improvement of their health status and rectal prolapse
illness (rectal prolapse, diarrhea, weight loss) ([3]; therapeutic regimen, after 2 weeks): resolved the illness
MRP-2 expression at apical surface of intestinal epithelium (MRP-2): completely suppressed
